# Literature values, collected in patent publication US7354746B1, “Method for producing optically active IHOG and monatin” (Ajinomoto Co., Inc., priority 2006, dated 2008).
# Like-named read-outs stand apart in the source and are kept apart here.
# Settings: for Sweetness (vs. Sucrose): sweetness intensity relative to sucrose
Structure (SMILES),Sweetness (vs. Sucrose),Sweetness rank among the 4 types of monatin isomers (comparison of the 4 monatin isomers),"Sweetness (vs. Sucrose) (listed as (2R, 4R)-monatin)"
"NC(CC(O)(Cc1c[nH]c2ccccc12)C(=O)O)C(=O)O [2S, 4S, (2S, 4S)-monatin]",50 times,–,–
"N[C@H](CC(O)(Cc1c[nH]c2ccccc12)C(=O)O)C(=O)O (stereo partly drawn) [2R, 4R, (2R, 4R)-monatin]",2700 times,highest sweetness,"2,700 times"
"N[C@H](C[C@@](O)(Cc1c[nH]c2ccccc12)C(=O)O)C(=O)O [2R, 4S]",1300 times,–,–
"N[C@@H](C[C@](O)(Cc1c[nH]c2ccccc12)C(=O)O)C(=O)O [2S, 4R, (2S, 4R)-monatin]",300 times,–,–
